The source of these data is patent publication EP2108650A1, “Novel aureothin derivatives” (Leibniz-Institut für Naturstoff-Forschung und …, priority 2008, dated 2009).

The test system of test [1] is human K-562 leukemia cells. Briefly: Antiproliferative assay on K-562 cells (CellTiter-Blue viability readout). Format: cell-based. Particulars: for IC50: Homo sapiens; for increase of antiproliferative activity compared to aureothin: ratio of IC50 versus aureothin. How it is done:
Cells were grown in the appropiate cell culture medium supplemented with 10 mL L^-1 ultraglutamine 1 (Cambrex 17-605E/U1), 500 µL L^-1 gentamicin sulfate (CAMBREX 17-518Z), and 10% heat inactivated fetal bovine serum (PAA A15-144) at 37°C in high density polyethylene flasks (NUNC 156340).
The test substances are dissolved in DMSO before being diluted in DMEM. […] were harvested at the logarithmic growth phase after soft trypsinization, using 0.25% trypsin in PBS containing 0.02% EDTA (Biochrom KG L2163). For each experiment approximately 10,000 cells were seeded with 0.1 mL culture medium per well of the 96-well microplates (NUNC 167008).
The cells were incubated with dilutions of the test substances for 72 hours at 37°C in a humidified atmosphere and 5% CO2.
For estimating the influence of chemical compounds on cell proliferation of K-562 we determinate the numbers of viable cells present in multiwell plates via CellTiter-Blue® assay. It uses the indicator dye resazurin to measure the metabolic capacity of cells as indicator of cell viability. Viable cells of untreated control retain the ability to reduce resazurin into resorufin, which is highly fluorescent. […] Under our experimental conditions, the signal from the CellTiter-Blue® reagent is proportional to the number of viable cells.
The GI50 and CC50 values were defined as being where the concentration-response curve intersected the 50% line, compared to untreated control. These comparisons of the different values were performed with software Magellan (TECAN).
A repeat determination has been conducted in all cases.

The subject of test [2] is fungal strains like Candida albicans, Sporobolomyces salmonicolor, Penicillium notatum, Glomerella or several Aspergillus spp. The experiment in a line: Antimicrobial / antifungal activity testing. Particulars: qualitative; compared with the other antimicrobial activities or with aureothin. Format: cell-based.
Where [3] appears, read: K562, DOA derivatives, K-562 cells, 72 h incubation (assay inferred; table has no title), read-out: IC50.

Structures are written as SMILES. Read-outs that look alike come from different tables or passages of the source.

As a reminder, the IC50 is the point on the concentration scale where inhibition reaches its midpoint. As for `COc1oc(CC/C(C)=C/C(C)=C/c2ccc([N+](=O)[O-])cc2)c(C)c(=O)c1C` [Deoxyaureothin, deoxyaureothin, reference compound], in test [1] (K562, read-out: IC50 antiproliferative activity against K-562 cells), the half-inhibitory concentration (IC50) came out at 5000 nM. For the same compound, in test [1] (K-562 cells), the “increase of antiproliferative activity compared to aureothin” value is on record as 5 fold.

In the case of `COc1oc(CC/C(C)=C/C(C)=C/c2ccc(Br)cc2)c(C)c(=O)c1C` [R = Ar-Br, p-bromo-DOA], the half-inhibitory concentration (IC50) is 1000 nM in test [1] (K562, 72 h) and 0.5 µg/mL in test [1] (setting [3]).

As to `COc1oc(CC/C(C)=C/C(C)=C/c2ccc(C#N)cc2)c(C)c(=O)c1C` [R = Ar-CN, deoxyaureonitrile], the IC50 in test [1] (K562, 72 h) is 1000 nM; in test [1] (setting [3]) it was 0.5 µg/mL. The “increase of antiproliferative activity compared to aureothin” value in test [1] (K-562 cells) was “up to 25 fold”. For the same compound, in test [2], the “effect against fungal strains” value is on record as “activities comparable to aureothin”.

For `COc1oc(CC/C(C)=C/C(C)=C/c2ccc(Cl)cc2)c(C)c(=O)c1C` [R = Ar-Cl, p-chloro-DOA], the concentration for half-maximal inhibition (IC50) in test [1] (K562, 72 h) worked out at 2000 nM; in test [1] (setting [3]) it was 0.8 µg/mL.

Turning to `COc1oc(CC/C(C)=C/C(C)=C/c2ccc(F)cc2)c(C)c(=O)c1C` [R = Ar-F, p-fluoro-DOA], the IC50 was 1000 nM in test [1] (K562, 72 h) and 0.5 µg/mL in test [1] (setting [3]).

Regarding `COc1oc(CC/C(C)=C/C(C)=C/c2ccc(I)cc2)c(C)c(=O)c1C` [R = Ar-I, p-iodo-DOA], the IC50 in test [1] (K562, 72 h) came out at 1000 nM; in test [1] (setting [3]), 0.5 µg/mL.

For `COc1oc(CC/C(C)=C/C(C)=C/c2ccc3ccccc3c2)c(C)c(=O)c1C` [R = Ar-Ph, 2-naphthoate-DOA], the IC50 in test [1] (K562, 72 h) was determined as 21000 nM; in test [1] (setting [3]), 8 µg/mL.
